Test results reported in publication PMC9085577, “Discovery of a Potent and Orally Active Dual GPBAR1/CysLT1R Modulator for the Treatment of Metabolic Fatty Liver Disease” (Frontiers in Pharmacology, 2022).
Converted amounts (≈) assume the structure as drawn. Like-named read-outs stand apart in the source and are kept apart here.

Tests used:
human GPBAR1 = molecular target: T1, human GPBAR1 (Homo sapiens, UniProt Q8TDU6); test: GPBAR1 CRE-luciferase reporter transactivation assay in HEK-293T cells; type: cell-based; details: HEK-293T; compound 10 µM relative to TLCA (10 μM) as 100, CRE transactivation, HEK293T cells; read-out: GPBAR1 Eff (%) maximum efficacy
T1 construct: expressed in transfected cells; host or cells: HEK-293T cells, transient transfection (Fugene HD)
T1 sequence (Q8TDU6 1-330): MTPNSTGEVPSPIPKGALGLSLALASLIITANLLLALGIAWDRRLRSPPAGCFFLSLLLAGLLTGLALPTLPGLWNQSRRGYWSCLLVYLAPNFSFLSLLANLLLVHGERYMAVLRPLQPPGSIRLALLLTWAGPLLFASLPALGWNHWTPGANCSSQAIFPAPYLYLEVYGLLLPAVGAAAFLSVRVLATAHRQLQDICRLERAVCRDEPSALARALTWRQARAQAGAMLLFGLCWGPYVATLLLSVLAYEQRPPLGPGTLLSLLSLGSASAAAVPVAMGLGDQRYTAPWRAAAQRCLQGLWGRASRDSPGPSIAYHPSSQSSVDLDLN
Procedure: GPBAR1. […] At 18 h post stimulations, cellular lysates were assayed for luciferase and Renilla activities using the Dual-Luciferase Reporter assay system (E1980, Promega Madison WI). Luminescence was measured using Glomax 20/20 luminometer (Promega, Madison WI). Luciferase activities were normalized with Renilla activities.
Agonistic activities of compounds on GPBAR1 were compared to TLCA, which was set as 100%.

Human CysLT1 (LTD4) = molecular target: T2, Human CysLT1 (LTD4) (Homo sapiens, UniProt Q9Y271); test: Human CysLT1 (LTD4) antagonist effect cellular functional assay (Ca2+ fluorescence, Eurofins Cerep-Panlabs); type: cell-based; details: for IC50: 0.1 nM LTD4
T2 construct: Eurofins Cerep-Panlabs (France), contract assay
T2 sequence (Q9Y271 1-337): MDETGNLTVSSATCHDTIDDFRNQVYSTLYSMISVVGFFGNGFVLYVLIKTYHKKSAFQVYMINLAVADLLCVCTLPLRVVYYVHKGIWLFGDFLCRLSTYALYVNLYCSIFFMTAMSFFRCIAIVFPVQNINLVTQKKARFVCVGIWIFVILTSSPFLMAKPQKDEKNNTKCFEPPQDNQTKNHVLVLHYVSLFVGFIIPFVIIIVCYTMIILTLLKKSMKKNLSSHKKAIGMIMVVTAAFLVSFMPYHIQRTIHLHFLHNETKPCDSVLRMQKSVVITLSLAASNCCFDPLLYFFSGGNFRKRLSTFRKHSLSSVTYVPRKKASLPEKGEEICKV
Procedure: Human CysLT1 (LTD4) (h) (antagonist effect) Cellular Functional Assay. These assays were performed at Eurofins Cerep-Panlabs (France). The cells were suspended in DMEM buffer (Invitrogen) and then distributed in microplates at a density of 3.104 cells/well. […] Thereafter, the assay plates are positioned in a microplate reader (CellLux, PerkinElmer), which was used for the addition of the test compound or HBSS buffer, then 5 min later, 0.1 nM LTD4 or HBSS buffer (basal control), and measured the changes in fluorescence intensity, which varies proportionally to the free cytosolic Ca^2+-ion concentration.

[1] = set-up: method as in Fiorillo et al., 2021; details: aqueous, pH 7.4; ref Fiorillo et al., 2021; cited from earlier work
[2] = set-up: method as in Fiorillo et al., 2021; details: pH 7.4; ref Fiorillo et al., 2021; cited from earlier work
[3] = set-up: method as in Fiorillo et al., 2021; details: ref Fiorillo et al., 2021; cited from earlier work
[4] = set-up: method as in Fiorillo et al., 2021; details: ref Fiorillo et al., 2021; cited from earlier work; remark: listed apart in the source
[5] = antagonist effect, read-out: CysLT1R IC50

Emax (human GPBAR1)	CysLT1R efficacy (percent inhibition of the control response to 0.1 nM LTD4) (Human CysLT1 (LTD4); antagonist effect)	IC50 (Human CysLT1 (LTD4); [5])	Structure (SMILES)	other results
56.9 ± 7.8%			COC(=O)c1cccc(-c2ccc(OCc3ccc4ccccc4n3)cc2)c1 [Compound 1, Methyl 4'-(quinolin-2-ylmethoxy)-[1,1′-biphenyl]-3-carboxylate]	
2.1 ± 0.06%	59 ± 3.6%		OCc1cccc(-c2ccc(OCc3ccc4ccccc4n3)cc2)c1 [Compound 3, (4'-(quinolin-2-ylmethoxy)-[1,1′-biphenyl]-3-yl)-methanol]	
13.5 ± 1%			COC(=O)c1ccc(-c2ccc(OCc3ccc4ccccc4n3)cc2)cc1 [Compound 4, Methyl 4'-(quinolin-2-ylmethoxy)-[1,1′-biphenyl]-4-carboxylate]	
36.7 ± 3%			O=C(O)c1ccc(-c2ccc(OCc3ccc4ccccc4n3)cc2)cc1 [Compound 5, 4'-(quinolin-2-ylmethoxy)-[1,1′-biphenyl]-4-carboxylic acid]	
64.9 ± 13%	0.8 ± 1.5%		OCc1ccc(-c2ccc(OCc3ccc4ccccc4n3)cc2)cc1 [Compound 6, (4'-(quinolin-2-ylmethoxy)-[1,1′-biphenyl]-4-yl)-methanol]	
20.5 ± 2.4%	76 ± 9.6%	1680 ± 280 nM	COC(=O)CCCCOc1cccc(OCc2ccc3ccccc3n2)c1 [Compound 7]	
12 ± 1.3%	99.6 ± 2.0%	900 ± 500 nM	O=C(O)CCCCOc1cccc(OCc2ccc3ccccc3n2)c1 [Compound 8]	
30.8 ± 7.5%	106.9 ± 1.6%	360 ± 580 nM	OCCCCCOc1cccc(OCc2ccc3ccccc3n2)c1 [Compound 9, 5-(3-(quinolin-2-ylmethoxy)phenoxy)-pentan-1-ol]	
20.2 ± 4.5%	92.1 ± 3.4%	1550 ± 430 nM	COC(=O)CCCOc1cccc(OCc2ccc3ccccc3n2)c1 [Compound 10, Methyl 4-(3-(quinolin-2-ylmethoxy)phenoxy)-butanoate]	
18.3 ± 4.8%	92.8 ± 2.3%		O=C(O)CCCOc1cccc(OCc2ccc3ccccc3n2)c1 [Compound 11, 4-(3-(quinolin-2-ylmethoxy)phenoxy)-butanoic acid]	
12.8 ± 3.3%	108.6 ± 1.8%	310 ± 240 nM	OCCCCOc1cccc(OCc2ccc3ccccc3n2)c1 [Compound 12, 4-(3-(quinolin-2-ylmethoxy)phenoxy)-butan-1-ol]	
			CCCCCC(O)c1cccc(OCc2ccc3ccccc3n2)c1 (stereo not drawn) [REV5901, alpha-pentyl-3-[2-quinolinylmethoxy] benzyl alcohol]	IC50 (Human CysLT1 (LTD4); CysLT1R IC50, antagonist effect): 2500 ± 1200 nM; Solubility [1]: 39.3 µM (≈ 13.2 µg/mL); LogD [2]: 3.1; Microsomes Clint [3]: 63 μl/min/mg protein; Microsomes t1/2 [3]: 37 min; S9 fraction Clint [4]: 40 μl/min/mg protein; S9 fraction t1/2 [4]: 57 min
